# Measurements: US20100178651A1, “Bifunctional Predictors of Cancer Treatment Sensitivity and Resistance” (priority 2006, published 2010)
# Experiments:
# breast cancer cells = assay: Drug sensitivity of breast cancer cells after down regulation of Tau by siRNA; format: cell-based; conditions: cancer cells in vitro
# Source text: Low expression of Tau is associated with known clinicopathological predictors of response to chemotherapy such as ER-negative status and high nuclear grade. However, in contrast to these predictors that are not treatment regimen-specific, low Tau may predict extreme sensitivity to a particular drug, paclitaxel. Since Tau is a microtubule associated protein, Tau has a mechanistic role in determining cellular response to paclitaxel, which is a microtubule poison.
# The inventors have validated this association at the protein level on an independent set of patients (n=122) using immunohistochemistry. […] Tau partially protects cells from paclitaxel induced apoptosis by reducing paclitaxel binding to tubulin and reducing paclitaxel induced microtubule polymerization. […] As described herein, low levels of Tau mRNA expression as measured by, but not limited to, cDNA microarrays or Tau protein expression detected by immunohistochemistry, are associated with higher rates of pathologic CR to T/FAC pre-operative chemotherapy for stage I-III breast cancer. […] Pathologic CR in this context means complete eradication of the invasive cancer from the breast and lymph nodes by chemotherapy and has consistently been associated with excellent long-term survival that is independent of other tumor characteristics.
# [1] = system: ER-positive breast cancer; assay: 5 years of adjuvant tamoxifen in patients with ER-positive breast cancer: distant relapse; format: in vivo, human; conditions: for 10-year distant metastasis-free survival: adjuvant tamoxifen
# Protocol: To examine the value of Tau as predictor of survival after 5 years of adjuvant tamoxifen therapy, we used data provided by the Institut Jules Bordet. This included gene expression and survival data on 267 patients with ER-positive tumors treated with adjuvant tamoxifen. […] In all data sets, ER-status was determined from routine pathological assessment including immunohistochemistry or ER-ligand-binding assay for the older specimens. The cut-off for ER-positivity was 10 fmol/mg protein or >10% positive cells by immunohistochemistry.
# This test was used because of the non-normal distribution of Tau. The prognostic value of Tau in untreated and tamoxifen-treated patients was assessed by examining the association between Tau expression and the occurrence of distant metastases using the Wilcoxon test. To assess if covariates including grade, tumor size and nodal status were associated with Tau levels we performed multivariate linear regression analysis. Kaplan-Meier survival curves were compared using the Log-rank test. In order to generate Kaplan-Meier curves, patients had to be assigned to various Tau expression groups. However, no cut off points have been established previously to assign low or high Tau status to cases based on microarray results. Furthermore, normalized expression values differed between the data sets, particularly for the prognostic data set that used different normalization procedure. In the absence of accepted cut off values and considering the non-normal expression distribution of Tau, we grouped patients by tertiles and quartiles.
# [2] = Tamoxifen treated group (n = 267)
Structure (SMILES),change of sensitivity to the drug on down regulation of Tau with siRNA (breast cancer cells),"Metastases within 5 years: No, patients (%) [1, 2]","Metastases within 5 years: Yes, patients (%) [1, 2]",10-year distant metastasis-free survival ([1]; Tau mRNA levels <183) [%],10-year distant metastasis-free survival ([1]; Tau mRNA levels >183) [%]
COc1cccc2c1C(=O)c1c(O)c3c(c(O)c1C2=O)C[C@@](O)(C(=O)CO)C[C@@H]3O[C@H]1C[C@H](N)[C@@H](O)[C@H](C)O1 [epirubicin],not to epirubicin,–,–,–,–
CC(=O)O[C@H]1C(=O)[C@@]2(C)[C@H]([C@H](OC(=O)c3ccccc3)[C@]3(O)C[C@H](OC(=O)[C@H](O)[C@@H](NC(=O)c4ccccc4)c4ccccc4)C(C)=C1C3(C)C)[C@]1(OC(C)=O)CO[C@@H]1C[C@@H]2O [paclitaxel],increases their sensitivity,–,–,–,–
CC/C(=C(\c1ccccc1)c1ccc(OCCN(C)C)cc1)c1ccccc1 [tamoxifen],–,160 (60%),38 (14%),65,78
